Data on nine compounds can be found in PubChem BioAssay (NCI).

Among the test systems are SW-620 colon; BT-549 breast; MDA-MB-435; A498 renal; MALME-3M melanoma; UACC-257 melanoma; SR leukemia; SN12C renal; SF-295 CNS; HCT-15 colon.
What all share (experiment): inhibition of tumour cell growth, NCI panel, 48 h

Several values for one entry are separate records, joined by “and”; a condition that tells them apart may be missing. Equal values may be shown once.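 Growth conditions: 96-well plates. Treatment: test compound, 48 hours, 5 concentrations. Analysis: linear interpolation between bracketing concentrations; unreached endpoints set to highest concentration. Abbreviation: GI50, concentration required for 50% inhibition of growth. The concentration for full growth arrest is given as TGI.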 Bounds are passed on as bounds.

For `C=CC(=O)N1CC2(CCN(c3nc(OC4CCN(CCCOC)CC4)nc4c(OCC(F)(F)F)c(-c5c(C)ccc6[nH]ncc56)c(C5CC5)cc34)CC2)C1`, the GI50 was 1.82 µM with SW-620 colon; 2.26 µM in the experiment with BT-549 breast; 1.85 µM with MDA-MB-435; 15.4 µM in the experiment with A498 renal; 1.66 µM with MALME-3M melanoma; 3.03 µM in the experiment on UACC-257 melanoma. The GI50 is 1.75 µM with SR leukemia, 2.36 µM in the experiment with SN12C renal, 2.08 µM in the experiment with SF-295 CNS and 1.66 µM in the experiment with HCT-15 colon. Also, the TGI was determined as 3.59 µM with SW-620 colon; 5.71 µM in the experiment on BT-549 breast; 4 µM in the experiment on MDA-MB-435; 29.5 µM with A498 renal; 3.14 µM with MALME-3M melanoma; 12.4 µM with UACC-257 melanoma. For the same compound, the TGI was 4.77 µM with SR leukemia, 5.86 µM with SN12C renal, 5.65 µM in the experiment with SF-295 CNS and 3.21 µM in the experiment with HCT-15 colon.
In the case of `CC1=CC(=Nc2ccc(N(CCCl)CCCl)cc2)C=C(C)C1=O`, the GI50 in the experiment on SW-620 colon is 0.816 µM; in the experiment on BT-549 breast it was 1.46 µM; with MDA-MB-435, 1.67 µM; in the experiment on A498 renal, 1.68 µM; with MALME-3M melanoma it was 1.84 µM; in the experiment on UACC-257 melanoma, 1.49 µM. The GI50 was 0.288 µM in the experiment on SR leukemia, 1.01 µM in the experiment on SN12C renal, 0.626 µM in the experiment with SF-295 CNS and 1.63 µM in the experiment with HCT-15 colon. The TGI in the experiment with SW-620 colon amounted to 4.6 µM; in the experiment on BT-549 breast, 3.16 µM; in the experiment on MDA-MB-435, 4.55 µM; with A498 renal, 4.13 µM; in the experiment with MALME-3M melanoma, 6.49 µM; in the experiment on UACC-257 melanoma, 5.12 µM. Moreover, the TGI with SR leukemia was more than 33.9 µM; with SN12C renal it was more than 26.7 µM; with SF-295 CNS, 22.6 µM; in the experiment with HCT-15 colon, 11 µM.
For the compound `COC(=O)[C@]12CC[C@@H](C)[C@H](C)[C@@H]1C1=CC[C@@H]3[C@@]4(C)C/C(=N\O)[C@H](O)[C@@]5(C)COC(=C45)C[C@@]3(C)[C@]1(C)CC2`, the GI50 was 8.42 µM in the experiment with SW-620 colon; 15.7 µM with BT-549 breast; 8.28 µM in the experiment on MDA-MB-435; 9.94 µM in the experiment on A498 renal; 15.9 µM in the experiment with MALME-3M melanoma; 18.6 µM in the experiment with UACC-257 melanoma. Besides, the GI50 with SR leukemia was 2.33 µM; in the experiment on SN12C renal, 5.79 µM; with SF-295 CNS it was 4.82 µM; in the experiment with HCT-15 colon, 5.47 µM. For the same compound, the TGI with SW-620 colon was determined as 21.9 µM; with BT-549 breast, 34.8 µM; in the experiment with MDA-MB-435, 22.2 µM; in the experiment on A498 renal, 21.9 µM; in the experiment on MALME-3M melanoma, 34.2 µM; in the experiment on UACC-257 melanoma, 34.5 µM. Besides, the TGI with SR leukemia was 5.77 µM; in the experiment on SN12C renal it was 21.2 µM; in the experiment on SF-295 CNS, 17.1 µM; in the experiment with HCT-15 colon, 17.7 µM.
On to `CC[CH2][Sn]([CH2]CC)([O]C(=O)c1cccnc1SC)[O][Sn]([CH2]CC)([CH2]CC)[O]C(=O)c1cccnc1SC`, for which the GI50 in the experiment on SW-620 colon is 0.216 µM; in the experiment with BT-549 breast, 1.41 µM; in the experiment on MDA-MB-435, 1.54 µM; in the experiment on A498 renal, 0.246 µM; in the experiment on MALME-3M melanoma it was 0.237 µM; in the experiment with UACC-257 melanoma, 0.594 µM. The GI50 in the experiment on SR leukemia is 0.214 µM; with SN12C renal, 0.453 µM; with SF-295 CNS, 1.04 µM; in the experiment with HCT-15 colon it was 0.246 µM. The TGI turned out to be 0.503 µM in the experiment on SW-620 colon; 2.71 µM in the experiment with BT-549 breast; 2.89 µM in the experiment with MDA-MB-435; 0.629 µM in the experiment with A498 renal; 0.566 µM in the experiment on MALME-3M melanoma; 1.72 µM in the experiment on UACC-257 melanoma. Further, the TGI in the experiment with SR leukemia worked out at 12.1 µM; with SN12C renal, 1.39 µM; in the experiment with SF-295 CNS, 3.04 µM; with HCT-15 colon it was 0.998 µM.
Regarding `COc1ccc(-c2cc(=O)c3c(OC)c(OC)c(OC)cc3o2)cc1`, the TGI in the experiment on SW-620 colon was more than 100 µM; in the experiment with BT-549 breast it was more than 100 µM; in the experiment on MDA-MB-435, more than 100 µM; in the experiment with A498 renal, 84 µM; with MALME-3M melanoma it was more than 100 µM; in the experiment with UACC-257 melanoma, more than 100 µM. The TGI in the experiment on SR leukemia is more than 100 µM; in the experiment on SN12C renal, 91.1 µM; in the experiment on SF-295 CNS it was 96.9 µM; in the experiment on HCT-15 colon, more than 100 µM.
For the compound `CCN(CC)CCOc1ccc(/C(=C(\Cl)c2ccccc2)c2ccccc2)cc1`, the GI50 is 1.11 µM and 1.74 µM in the experiment with SW-620 colon; 5.48 µM and 2.91 µM in the experiment on BT-549 breast; 1.54 µM and 2.2 µM with MDA-MB-435; 6.96 µM and 2.32 µM in the experiment on A498 renal; 1.21 µM and 1.43 µM in the experiment with MALME-3M melanoma; 0.989 µM and 1.97 µM with UACC-257 melanoma. Also, the GI50 in the experiment with SR leukemia is 1.9 µM and 2.3 µM; in the experiment with SN12C renal, 5.28 µM and 4.43 µM; with SF-295 CNS, 1.06 µM and 1.87 µM; in the experiment on HCT-15 colon it was 1.47 µM and 1.72 µM. Also, the TGI with SW-620 colon is 2.56 µM and 3.73 µM; in the experiment with BT-549 breast, 11.9 µM and 12.1 µM; in the experiment on MDA-MB-435, 5.78 µM and 7.08 µM; in the experiment with A498 renal it was 13.7 µM and 10.1 µM; in the experiment with MALME-3M melanoma, 3.88 µM and 2.99 µM; with UACC-257 melanoma, 2.09 µM and 4.04 µM. Besides, the TGI with SR leukemia is 9.16 µM and 8.36 µM; in the experiment on SN12C renal it was 11.9 µM and 16.5 µM; in the experiment with SF-295 CNS it was 2.54 µM and 4.02 µM; in the experiment with HCT-15 colon, 5.01 µM and 7.38 µM.
Turning to `COC1/C=C\C=C(/C)C(=O)NC2=CC(=O)C(=O)C(=C2O)CC(C)CC(OC)C(O)C(C)/C=C(\C)C1OC(N)=O` (stereo not given), the TGI in the experiment with SW-620 colon was 18.3 µM; in the experiment on BT-549 breast it was more than 100 µM; in the experiment on MDA-MB-435, 11.8 µM; with A498 renal it was more than 100 µM; with MALME-3M melanoma, 21.7 µM; in the experiment on UACC-257 melanoma, more than 36.3 µM. Besides, the TGI in the experiment on SR leukemia is 25 µM; in the experiment on SN12C renal it was 3.22 µM; in the experiment with SF-295 CNS it was more than 100 µM; in the experiment on HCT-15 colon, more than 100 µM.
Take `CC(=O)OCCN1c2ccccc2Sc2cnccc21`: the TGI in the experiment on SW-620 colon, in the experiment with BT-549 breast, with MDA-MB-435, in the experiment with A498 renal, with MALME-3M melanoma and with UACC-257 melanoma was more than 10 µM in each case. For the same compound, the TGI with SR leukemia, with SN12C renal, with SF-295 CNS and in the experiment with HCT-15 colon was more than 10 µM in each case.
On to `O=C1Nc2c(C(F)(F)F)cccc2[C@]1(c1ccc(O)cc1)c1ccc(OC(F)(F)F)cc1`, for which the GI50 is 14.5 µM with SW-620 colon; 2.18 µM in the experiment on BT-549 breast; 13.6 µM in the experiment with MDA-MB-435; 14.7 µM in the experiment with A498 renal; 13 µM in the experiment with MALME-3M melanoma; 11.8 µM in the experiment with UACC-257 melanoma. Further, the GI50 in the experiment on SR leukemia was 6.6 µM; with SN12C renal, 2.83 µM; in the experiment with SF-295 CNS it was 10 µM; with HCT-15 colon it was 9.43 µM. Besides, the TGI in the experiment on SW-620 colon came to 32.2 µM; with BT-549 breast, 8.43 µM; in the experiment on MDA-MB-435, 26.6 µM; with A498 renal it was 30 µM; in the experiment on MALME-3M melanoma, 26.6 µM; in the experiment on UACC-257 melanoma, 24.9 µM. The TGI came to 39.8 µM in the experiment on SR leukemia, 12.3 µM with SN12C renal, 22.1 µM in the experiment on SF-295 CNS and 23.3 µM with HCT-15 colon.
